In patent US6284768A, “Src family SH2 domain inhibitors” (Boehringer Ingelheim Pharmaceuticals, Inc., priority 1999, dated 2001):

Biological target: T1, p56lck GST-SH2 (lck SH2 domain) (Homo sapiens, UniProt P06239)
T1 construct: GST (N)
Assay: Receptor-ligand equilibrium binding constants by surface plasmon resonance (biosensor), lck SH2 domain
Conditions: Table 1, compounds of formula (II)
Experimental: The general methods for the determination of Receptor-Ligand Kinetic and Equilibrium Binding Constants using Surface Plasmon Resonance as applied to the lck SH2 Domain have been described in: M. M. Morelock, R. H. Ingraham, R. Betageri.
General Biosensor Methods.
The mobile phase buffer, 10 mM HEPES, pH 7.4, 150 mM NaCl, and 0.05% P-20, was maintained at a flow rate of 5 μL/min in all experiments. All buffers and protein solutions were filtered through a 0.2 um filter and degassed immediately before use.
Strepavidin was diluted to 0.25 mg/ml in 20 mM NaOAc buffer, pH 4.5 and immobilized by free amine coupling to approximately 3000 RU for all 4 flow cells from a single sensor chip .
Surface Kd Determinations.
The surface was regenerated by 4μL of 20 mM HCl followed by 4 μL of 150 mM Tris base. The values used in the analysis were the equilibrium plateau values from which the sample refractive index has been subtracted. For the data analyzed for linear function the equilibrium plateau values without the sample refractive index subtracted were used. Free solution Kd determinations. In a 96 well microtiter plate 20 nM SH2 domain suspended in running buffer containing 0.2 mg/ml BSA and 1 mM DT'T was distributed in 100 μL per well. The highest concentration of compound tested was added to the last well and titrated with 2 fold dilutions for a final of 10 concentrations to be run. 25 μL of the mixture was injected over a strepavidin-biotin-ε-aminohexanoic acid-EGQpYEEIPIA surface and regenerated with 4 μL of 20 mM HCl. […], of 150 mM Tris base was injected after every 11 samples. Typically 8 assays were run in an overnight programmed run.

T1 sequence (P06239 127-224 limits assumed): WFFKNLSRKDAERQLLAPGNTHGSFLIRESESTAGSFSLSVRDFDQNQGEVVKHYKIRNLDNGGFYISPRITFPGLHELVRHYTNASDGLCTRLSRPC

| SMILES | Kd |
| --- | --- |
| Cc1ccn(Cc2ccc(OC(C)C)cc2)c(=O)c1NC(=O)[C@H](Cc1ccc(CC(=O)O)cc1)NC(=O)Cc1cccc2ccccc12 [Compound 51] | > 69 µM |
| COc1ccc(Cn2ccc(C)c(NC(=O)[C@H](Cc3ccc(C(C)(C)C(=O)O)cc3)NC(=O)[C@H](C)c3cccc4ccccc34)c2=O)cc1 [Compound 44] | 1.5 µM |
| COc1ccc(Cn2ccc(C)c(NC(=O)[C@H](Cc3ccc(NC(=O)C(=O)O)cc3)NC(=O)CN3CCc4ccccc4C3)c2=O)cc1 [Compound 29] | 1.2 µM |
| COc1ccc(Cn2ccc(C)c(NC(=O)[C@H](Cc3ccc(CC(=O)O)cc3)NC(=O)Cc3ccccc3Oc3ccccc3)c2=O)cc1 [Compound 73] | > 250 µM |
| COc1ccc(Cn2ccc(C)c(NC(=O)[C@H](Cc3ccc(NC(=O)C(=O)O)cc3)NC(=O)Cc3c[nH]c4ccccc34)c2=O)cc1 [Compound 5] | 1.3 µM |
| COc1ccc(Cn2ccc(C)c(NC(=O)[C@H](Cc3ccc(NC(=O)C(=O)O)cc3)NC(=O)Cc3csc(-c4cnccn4)n3)c2=O)cc1 [Compound 17] | 3.4 µM |
| COc1ccc(Cn2ccc(C)c(NC(=O)[C@H](Cc3ccc(NC(=O)C(=O)O)cc3)NC(=O)Nc3cccc4ccccc34)c2=O)cc1 [Compound 9] | 64.5 µM |
| COc1ccc(Cn2ccc(C)c(NC(=O)[C@H](Cc3ccc(NC(=O)C(=O)O)cc3)NC(=O)Nc3c(C)ccc4ccccc34)c2=O)cc1 [Compound 30] | 0.35 µM |
| COc1ccc(Cn2ccc(C)c(NC(=O)[C@H](Cc3ccc(NC(=O)C(=O)O)cc3)NC(=O)Cc3nc(-c4ccccc4)sc3C)c2=O)cc1 [Compound 15] | 1.8 µM |
| COc1ccc(Cn2ccc(C)c(NC(=O)[C@H](Cc3ccc(NC(=O)C(=O)O)cc3)NC(=O)Cc3sc(N)nc3-c3ccccc3)c2=O)cc1 [Compound 11] | 2.9 µM |
| COc1ccc(Cn2ccc(C)c(NC(=O)[C@H](Cc3ccc(NC(=O)C(=O)O)cc3)NC(=O)Cc3csc(NC=O)n3)c2=O)cc1 [Compound 13] | 4.6 µM |
| COc1ccc(Cn2ccc(C)c(NC(=O)[C@H](Cc3ccc(NC(=O)C(=O)O)cc3)NC(=O)Cc3ccc(-n4c(C)ccc4C)cc3)c2=O)cc1 [Compound 39] | 2.3 µM |
| COc1ccc(Cn2ccc(C)c(NC(=O)[C@H](Cc3ccc(NC(=O)C(=O)O)cc3)NC(=O)Cc3cccc4ccccc34)c2=O)cc1 [Compound 52] | 0.24 µM |
| COc1ccc(Cn2ccc(C)c(NC(=O)[C@H](Cc3ccc(CC(=O)O)cc3)NC(=O)Cc3cc(=O)oc4cc(N(C)C)ccc34)c2=O)cc1 [Compound 64] | 17 µM |
| COc1ccc(Cn2ccc(C)c(NC(=O)[C@H](Cc3ccc(C(CO)C(=O)O)cc3)NC(=O)OCc3ccccc3)c2=O)cc1 (stereo partly drawn) [Compound 50, 3-[2-(S)-Benzyloxycarbonylamino-3-[4'-(1"-(R,S)-carboxy-2"-hydroxy)ethyl]benzene]propanoylamino-1-(4-methoxybentyl)-4-methyl-2-pyridone] | 39 µM |
| COc1ccc(Cn2ccc(C)c(NC(=O)[C@H](Cc3ccc(C(C)(C)C(=O)O)cc3)NC(=O)[C@@H](C)c3cccc4ccccc34)c2=O)cc1 [Compound 45] | 3.4 µM |
| COc1cccc(Cn2ccc(C)c(NC(=O)[C@H](Cc3ccc(CC(=O)O)cc3)NC(=O)Cc3cccc4ccccc34)c2=O)c1 [Compound 20] | 19.4 µM |
| COc1ccc(Cn2ccc(C)c(NC(=O)[C@H](Cc3ccc(C(O)C(=O)O)cc3)NC(=O)Cc3cccc4ccccc34)c2=O)cc1 (stereo partly drawn) [Compound 8, 3-[2'-(S)-(1""-Naphthylacetyl)amino-3'-[4"-(1'"-hydroxy-1'"-carboxy)methyl]benzene]propanoylamino-1-(4-methoxybenzyl)-4-methyl-2-pyridone] | 0.99 µM |
| COc1ccc(Cn2ccc(C)c(NC(=O)[C@H](Cc3ccc(NC(=O)C(=O)O)cc3)NC(=O)Cc3ccc([N+](=O)[O-])cc3)c2=O)cc1 [Compound 33] | 3.7 µM |
| COc1ccc(Cn2ccc(C)c(NC(=O)[C@H](Cc3ccc(CC(=O)O)cc3)NC(=O)Cc3ccc(Oc4ccccc4)cc3)c2=O)cc1 [Compound 71] | 14 µM |

The next lines start with the values.

| Kd | SMILES |
| --- | --- |
| 0.08 µM | COc1ccc(Cn2cc(Br)c(C)c(NC(=O)[C@H](Cc3ccc(C(C)(C)C(=O)O)cc3)NC(=O)Cc3ccc(C(F)(F)F)cc3)c2=O)cc1 [Compound 228] |
| 15 µM | Cc1ccn(CC2CCOC2)c(=O)c1NC(=O)C(Cc1ccc(C(C)(C)C(=O)O)cc1)NC(=O)Cc1cccc2ccccc12 (stereo not shown) [Compound 210] |
| 6 µM | COCCOCCn1ccc(C)c(NC(=O)C(Cc2ccc(C(C)(C)C(=O)O)cc2)NC(=O)Cc2ccc3ccccc3c2)c1=O (stereo not shown) [Compound 143] |
| 0.42 µM | COc1ccc(Cn2cc(Br)c(C)c(NC(=O)[C@H](Cc3ccc(C(C)(C)C(=O)O)cc3)NC(=O)C(C)(C)c3ccc4ccccc4c3)c2=O)cc1 [Compound 233] |
| 0.19 µM | COc1ccc(Cn2ccc(C)c(NC(=O)[C@H](Cc3ccc(C(C)(C)C(=O)O)cc3)NC(=O)Cc3ccc(C)cc3)c2=O)cc1 [Compound 114] |
| 0.74 µM | CCCCCCn1cc(C(=O)OC)c(C)c(NC(=O)C(Cc2ccc(C(C)(C)C(=O)O)cc2)NC(=O)Cc2ccc3ccccc3c2)c1=O (stereo not shown) [Compound 240] |
| 3.3 µM | COc1ccc(Cn2ccc(C)c(NC(=O)[C@H](Cc3ccc(CC(=O)O)cc3)NC(=O)COc3cc4ccccc4cn3)c2=O)cc1 [Compound 86] |
| 0.13 µM | COc1ccc(Cn2ccc(C)c(NC(=O)[C@H](Cc3ccc(C(C)(C)C(=O)O)cc3)NC(=O)Cc3ccc(N(C)C)cc3)c2=O)cc1 [Compound 99] |
| 4.9 µM | Cc1ccn(CC2CCOC2)c(=O)c1NC(=O)C(Cc1ccc(C(C)(C)C(=O)O)cc1)NC(=O)Cc1ccc2ccccc2c1 (stereo not shown) [Compound 211] |
| 20 µM | COCCOCCn1ccc(C)c(NC(=O)C(Cc2ccc(C(C)(C)C(=O)O)cc2)NC(=O)C(C)(C)c2ccc3ccccc3c2)c1=O (stereo not shown) [Compound 144] |
| 1.2 µM | COc1ccc(Cn2ccc(C)c(NC(=O)[C@H](Cc3ccc(CC(=O)O)cc3)NC(=O)COc3cccc4c(N(C)C)cccc34)c2=O)cc1 [Compound 167] |
| 23 µM | Cc1ccn(CC2CCOC2)c(=O)c1NC(=O)C(Cc1ccc(C(C)(C)C(=O)O)cc1)NC(=O)C(C)(C)c1ccc2ccccc2c1 (stereo not shown) [Compound 212] |
| 19 µM | COc1ccc(Cn2ccc(C)c(NC(=O)[C@H](Cc3ccc(CC(=O)O)cc3)NC(C)=O)c2=O)cc1 [Compound 89] |
| 0.65 µM | COc1ccc(Cn2ccc(C)c(NC(=O)[C@H](Cc3ccc(NC(=O)C(=O)O)cc3)NC(=O)Cc3ccc(NC(=O)C(C)(C)C)cc3)c2=O)cc1 [Compound 104] |
| 23 µM | Cc1ccn(Cc2ccc(C(C)C)cc2)c(=O)c1NC(=O)[C@H](Cc1ccc(N(O)C(=O)C(=O)O)cc1)NC(=O)Cc1ccc(N(C)C)cc1 [Compound 96] |
| 0.51 µM | COc1ccc(Cn2ccc(C)c(NC(=O)C(Cc3ccc(C(C)(C)C(=O)O)cc3)NC(=O)C(C)(C)c3ccc(N(C)C)cc3)c2=O)cc1 (stereo not shown) [Compound 230] |
| 4.8 µM | COc1ccc(Cn2c(C)cc(C)c(NC(=O)[C@H](Cc3ccc(CC(=O)O)cc3)NC(=O)Cc3cccc4ccccc34)c2=O)cc1 [Compound 91] |
| 9 µM | Cc1ccn(Cc2ccccc2)c(=O)c1NC(=O)C(Cc1ccc(C(C)(C)C(=O)O)cc1)NC(=O)Cc1cccc2ccccc12 (stereo not shown) [Compound 197] |
| 3.1 µM | COCCCCn1ccc(C)c(NC(=O)C(Cc2ccc(C(C)(C)C(=O)O)cc2)NC(=O)Cc2ccc3ccccc3c2)c1=O (stereo not shown) [Compound 237] |
| 0.43 µM | COc1ccc(Cn2ccc(C)c(NC(=O)[C@H](Cc3ccc(C(C)(C)C(=O)O)cc3)NC(=O)Cc3c[nH]c4ccccc34)c2=O)cc1 [Compound 98] |
| 3.9 µM | COc1ccc(Cn2ccc(C)c(NC(=O)C(Cc3ccc(C(C)(C)C(=O)O)cc3)NC(=O)C(C)C)c2=O)cc1 (stereo not shown) [Compound 170] |
| 13 µM | Cc1ccn(CCCCC(C)C)c(=O)c1NC(=O)C(Cc1ccc(C(C)(C)C(=O)O)cc1)NC(=O)OCc1ccccc1 (racemic) [Compound 146, 3-[2'-(R,S)-Benyloxycarbonylamino-3'-[4"-(1'"-carboxy-1'"-methyl)ethyl]benzene]propanoylamino-1-(5-methylhexyl)-4-methyl-2-pyridone] |
| 1.2 µM | Cc1ccn(C/C=C/c2ccccc2)c(=O)c1NC(=O)C(Cc1ccc(C(C)(C)C(=O)O)cc1)NC(=O)Cc1ccc2ccccc2c1 (racemic) [Compound 115] |
| > 1.3 µM | COc1ccc(Cn2ccc(C)c(NC(=O)[C@H](Cc3ccc(C(C)(C)C(=O)O)cc3)NC(=O)Cc3ccc(N(Cc4ccccc4)Cc4ccccc4)cc3)c2=O)cc1 [Compound 131] |
| 13 µM | COCCOCn1ccc(C)c(NC(=O)C(Cc2ccc(C(C)(C)C(=O)O)cc2)NC(=O)Cc2ccc3ccccc3c2)c1=O (stereo not shown) [Compound 189] |
| 20 µM | COc1ccc(Cn2ccc(C)c(NC(=O)[C@H](Cc3ccc(CC(=O)O)cc3)NC(=O)C3(c4ccccc4)CC3)c2=O)cc1 [Compound 77] |
| 43 µM | COCCOCn1ccc(C)c(NC(=O)C(Cc2ccc(C(C)(C)C(=O)O)cc2)NC(=O)C(C)(C)c2ccc3ccccc3c2)c1=O (stereo not shown) [Compound 190] |

Same assay, conditions: Table 2, compounds of formula (III)

| SMILES | Kd |
| --- | --- |
| COc1ccc(Cn2ncc(C)c(NC(=O)C(Cc3ccc(C(C)(C)C(=O)O)cc3)NC(=O)Cc3ccccc3)c2=O)cc1 (stereo not shown) [Compound 245] | 23 µM |
| COc1ccc(Cn2ncc(C)c(NC(=O)C(Cc3ccc(C(C)(C)C(=O)O)cc3)NC(=O)Cc3ccccc3N)c2=O)cc1 (stereo not shown) [Compound 246] | 30 µM |
